Entries after “also recorded” stand apart in the source; their conditions may differ. One block for each compound: values may come before it.
Key:
WI-38 (lung fibroblasts) = assay: MTT proliferation assay, WI-38; assay type: cell-based; details: Homo sapiens, 72 h, normal lung fibroblasts
Summary of the method: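 Read-out: A570 after 3 h MTT and DMSO solubilisation, converted to percentage of growth per NIH formulas; IC50 by regression analysis. Exposure: 72 h, 0.01–100 μM, 5000 cells/well plated 24 h earlier in DMEM/10% FBS.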

MCF-7 cells = assay: Annexin V apoptosis detection assay; assay type: cell-based, Human
Experimental: A total of 2 × 10^4 MCF-7 cells were seeded into 8-well Nunc Lab-Tek II Chamber Slide system (Thermo Fischer Scientific, Waltham, MA, USA), and treated with compound 4e at 1 × IC50 and 2 × IC50 for 24 and 48 h. The assay (Annexin-V-FLUOS Staining kit, Roche Applied Science, Penzberg, Germany) was preformed according to the manufacturer protocol. Slides were analyzed by fluorescence microscopy (Zeiss Axio Observer Z1 Inverted Phase Contrast Fluorescent Microscope, Jena, Germany)).

[1] = tested on: hydroxylated HIF-1α (Pro564); assay: Western blot of hydroxy-HIF-1α in MCF-7 cells; assay type: cell-based, Human; details: MCF-7, 6.72 µM, 48 h
Experimental: Protein lysates were prepared using RIPA buffer containing cocktail of protease and phosphatase inhibitors (Roche, Basel, Switzerland). Amounts of 50 μg of proteins were resolved on 12% SDS polyacrylamide gels using the Mini-protean cell (Bio-Rad, Hercules, CA, USA). The membranes were incubated with primary antibodies raised against hydroxy-HIF-1α (Pro564) (HIF-1α, 1:1000, rabbit mAb, Cell Signaling Technology, NL) and NOS2 (1:500, mouse mAb, SantaCruzBiotechnology, Dallas, TX, USA) at 4 °C overnight. A secondary antibody linked to anti-mouse (1:1000, Dako, Santa Clara, CA, USA) was used. The signal was visualized by the Western Lightening Chemiluminescence Reagent Plus Kit (Perkin Elmer, Massachusetts, MA, USA) on the ImageQuant LAS500 (GE Healthcare, Chicago, IL, USA), and as a loading control, α-tubulin (1:1000, mouse mAb, Sigma, Sigma Aldrich, Darmstadt, Germany) was used. The signal intensities of bands were normalized and compared in Quantity One software (Bio-Rad, Hercules, CA, USA). Differences in protein relative expression status obtained by western blot analysis were analyzed by two-tailed, paired t-tests (p < 0.05) in the Statistica software package (v.12.0).

HFF-1 cells = assay: Seahorse XF Cell Mito Stress Test, HFF-1; assay type: cell-based, Human; details: HFF-1, 24 h
Experimental: The Seahorse XF Cell Mito Stress Test was used for measurements of mitochondrial respiration by direct assessment of the oxygen consumption rate (OCR), of treated and untreated cells on the Seahorse XFe24 Analyzer, (Agilent, Santa Clara, CA, USA). Key parameters of the mitochondrial function were measured by direct assessment of the OCR, by use of the Mito Stress Test (Agilent, Agilent, Santa Clara, CA, USA). The Mito Stress Test uses modulators of respiration that target components of the electron transport chain in the mitochondria. The compounds added to the reaction were: oligomycin, mitochondrial oxidative phosphorylation uncoupler carbonyl cyanide-4-(trifluoromethoxy)phenylhydrazone (FCCP), and the mix of rotenone and antymicin A. These were directly injected to the cell growth medium containing cells treated with selected L-ASA derivatives to determine the production of ATP, respiration at maximal level, and the non-mitochondrial respiration. Measured parameters were used for calculation of the proton leakage, spare respiratory capacity, and basal respiration. The assay was performed according to the manufacturer’s instructions (SeaHorse—Mito Stress Test: Agilent, Santa Clara, CA, USA). Briefly, selected compound 4e was tested due to its selective antiproliferative effect on MCF-7 cells. MCF-7 cells were treated for 24 h with compound 4e at 3 different concentrations (at 12.72 µM, 25.44 µM and 50.88 µM) while the cells HFF-1 were treated for 24 h with compound 4e at concentrations 50 µM, 100 µM, and 200 µM. […] The experiment was performed with biological duplicates.

[2] = parameters: method as in PMID 20925411; details: experimental acid dissociation constant; cited from earlier work
[3] = MCF-7, 24 h, 6.72 µM (1 × IC50)
[4] = MCF-7, 24 h, 13.44 µM (2 × IC50)
[5] = MCF-7, 24 h, 1 × IC50, versus untreated cells
[6] = MCF-7, 48 h, 6.72 µM (1 × IC50)
[7] = MCF-7, 48 h, 13.44 µM (2 × IC50)

cellular metabolism and mitochondrial activity (HFF-1 cells; 100 µM): slightly positive effect
melting point: 159 to 160 °C
SMILES: O=C1O[C@H]([C@@H](O)Cn2cc(-c3ccc(Br)cc3)nn2)C(O)=C1O [Compound 4e, 6-[4-(4-bromophenyl)-1,2,3-triazol-1-yl]-6-deoxy-L-ascorbic acid]
IC50 (WI-38 (lung fibroblasts)): 73.9 µM
Early Apoptosis (%) (MCF-7 cells; [3]): 30.6%
Late Apoptosis (%) (MCF-7 cells; [3]): 6.4%
Necrosis (%) (MCF-7 cells; [3]): 0.8%
Early Apoptosis (%) (MCF-7 cells; [4]): 5.3%
Late Apoptosis (%) (MCF-7 cells; [4]): 38.1%
Necrosis (%) (MCF-7 cells; [4]): 15.9%
increase in early apoptotic cell population (MCF-7 cells; [5]): 12.4%
increase in late apoptotic cell population (MCF-7 cells; [5]): 2.0%
Early Apoptosis (%) (MCF-7 cells; [6]): 46.6%
Late Apoptosis (%) (MCF-7 cells; [6]): 4.2%
Necrosis (%) (MCF-7 cells; [6]): 0.8%
Early Apoptosis (%) (MCF-7 cells; [7]): 9.1%
Late Apoptosis (%) (MCF-7 cells; [7]): 2.3%
Necrosis (%) (MCF-7 cells; [7]): 0%
percentage of cells in early apoptosis higher than in untreated cells (MCF-7 cells; MCF-7, 48 h, 1 × IC50, versus untreated cells): 35.2%
hydroxylated HIF-1α (Pro564) expression [1]: statistically significant increase; also recorded: strongly increased
basal cell respiration and ATP production (HFF-1 cells): did not affect the basal cell respiration or ATP production; also recorded: did not affect the basal cell respiration and ATP production

decrease of basal cell respiration and ATP production, switch towards non-mitochondrial respiration (HFF-1 cells; higher concentrations): this effect was not observed
SMILES: O=C1O[C@H]([C@@H](O)CO)C(O)=C1O [L-ASA, L-ascorbic acid]
pKa,2 (experimental) [2]: 11.4

From article PMC6801448, “The Antioxidant and Antiproliferative Activities of 1,2,3-Triazolyl-L-Ascorbic Acid Derivatives” (International Journal of Molecular Sciences, 2019)
